Values of other authors, collected in US9775855B2, “Compositions comprising macrolide and tetracycline and their uses” (priority 2011, dated 2017).
Where two headings read alike, the source gives them in different places.

How the values were obtained:
[1] = individuals treated for acne for an average of 9 months
[2] = not given; remark: listed apart in the source
[3] = room temperature

## NNC(=O)c1ccncc1 [Isoniazid, 4-pyridinecarboxylic acid, hydrazide]
other
  solubility in water: freely soluble

## CN(C)c1ccc(O)c2c1C[C@H]1C[C@H]3[C@H](N(C)C)C(O)=C(C(N)=O)C(=O)[C@@]3(O)C(O)=C1C2=O [Minocycline]
[1]
  frequency of adverse events: one in a million
[2]; human beings, compared with doxycycline and other tetracyclines
  penetration of the cerebral spinal fluid (CSF): better than doxycycline and other tetracyclines
[2]; in vivo
  crossing the blood-brain barrier: capable of crossing the blood-brain barrier

## NC(=O)c1cnccn1 [Pyrazinamide, pyrazinecarboxamide]
other
  solubility in water: sparingly soluble
[3]
  stability: stable at room temperature

## CO[C@H]1/C=C/O[C@@]2(C)Oc3c(C)c(O)c4c(O)c(c(/C=N/N5CCN(C)CC5)c(O)c4c3C2=O)NC(=O)/C(C)=C\C=C\[C@H](C)[C@H](O)[C@@H](C)[C@@H](O)[C@@H](C)[C@H](OC(C)=O)[C@@H]1C [Rifampin, 3-[[(4-methyl-1-piperazinyl)imino]-methyl]-rifamycin]
At neutral pH
  solubility in water: very slightly soluble
